# Values of other authors as cited in patent publication US20030064909A1, “Laundry detergent and/or fabric care compositions comprising a transferase” (The Procter & Gamble Company, priority 1998, published 2003).
row,solubility in water,Compound
1,about 25%,"O=[N+]([O-])C(Br)(CO)CO [Bronopol, 2-bromo-2-nitropropane-1,3-diol]"
2,about 0.8%,"CC(C)(O)C(Cl)(Cl)Cl [chlorobutanol, 1,1,1-Trichloro-2-methylpropan-2-ol, reference compound]"
3,about 2%,OCCc1ccccc1 [2-phenylethanol]
4,more than 50%,"CC1(C)C(=O)N(CO)C(=O)N1CO [DMDM hydantoin, 1,3-bis(hydroxymethyl)-5,5-dimethyl-2,4-imidazolidinedione]"
5,about 1.8%,"[H]/N=C(\N/C(=N/[H])NCCCCCCNC(=N)NC(=N)Nc1ccc(Cl)cc1)Nc1ccc(Cl)cc1 [chlorhexidine diacetate, 1,1′-hexamethylene bis(5-(p-chlorophenyl)biguanide), reference compound]"
6,about 0.46%,"O=[N+]([O-])C1(Br)COCOC1 [Bronidox L, 5-bromo-5-nitro-1,3-dioxane]"
7,about 4%,OCc1ccccc1 [benzyl alcohol]
8,about 70%,"[H]/N=C(\N/C(=N/[H])NCCCCCCNC(=N)NC(=N)Nc1ccc(Cl)cc1)Nc1ccc(Cl)cc1 [chlorhexidine digluconate, 1,1′-hexamethylene bis(5-(p-chlorophenyl)biguanide), reference compound]"
9,about 2.67%,OCCOc1ccccc1 [2-phenoxyethanol]

row,Compound,solubility in water
1,"ClC=CC[N+]12CN3CN(CN(C3)C1)C2.[Cl-] [Dowicil 200, 1-(3-Chlorallyl) -3,5,7-triaza-1-azoniaadamantane chloride]",freely soluble in water
2,[Na+].[O-][n+]1ccccc1[S-] [sodium pyrithione],about 50%
